From ChEMBL document CHEMBL4507295 (2021)

What was measured:
[1] = target: Interleukin-1 receptor-associated kinase 3 (Homo sapiens) (UniProt Q9Y616); conditions: Compound concentration 1000.0 nM
[2] = target: Ephrin type-A receptor 6 (Homo sapiens) (UniProt Q9UF33); conditions: Compound concentration 1000.0 nM
[3] = target: Receptor tyrosine-protein kinase erbB-4 (Homo sapiens) (UniProt Q15303); conditions: Compound concentration 1000.0 nM
[4] = target: Mitogen-activated protein kinase kinase kinase kinase 5 (Homo sapiens) (UniProt Q9Y4K4); conditions: Compound concentration 1000.0 nM
[5] = target: Atypical kinase COQ8A, mitochondrial (Homo sapiens) (UniProt Q8NI60); conditions: Compound concentration 1000.0 nM
[6] = system: Tyrosine-protein kinase ABL1 (Homo sapiens), P00519 [F317L]; conditions: Compound concentration 1000.0 nM
[7] = target: Receptor-interacting serine/threonine-protein kinase 1 (Homo sapiens) (UniProt Q13546); conditions: Compound concentration 1000.0 nM
[8] = target: Myosin light chain kinase 2, skeletal/cardiac muscle (Homo sapiens) (UniProt Q9H1R3); conditions: Compound concentration 1000.0 nM
[9] = target: Ribosomal protein S6 kinase alpha-6 (Homo sapiens) (UniProt Q9UK32); conditions: Compound concentration 1000.0 nM
[10] = target: Dual specificity tyrosine-phosphorylation-regulated kinase 1A (Homo sapiens) (UniProt Q13627); conditions: Compound concentration 1000.0 nM
[11] = target: Serine/threonine-protein kinase WNK4 (Homo sapiens) (UniProt Q96J92); conditions: Compound concentration 1000.0 nM
[12] = target: Serine/threonine-protein kinase Nek10 (Homo sapiens) (UniProt Q6ZWH5); conditions: Compound concentration 1000.0 nM
[13] = system: Mast/stem cell growth factor receptor Kit (Homo sapiens), P10721 [L576P]; conditions: Compound concentration 1000.0 nM
[14] = target: Mitogen-activated protein kinase 10 (Homo sapiens) (UniProt P53779); conditions: Compound concentration 1000.0 nM
[15] = target: Serine/threonine-protein kinase Chk1 (Homo sapiens) (UniProt O14757); conditions: Compound concentration 1000.0 nM
[16] = target: Serine/threonine-protein kinase NIM1 (Homo sapiens) (UniProt Q8IY84); conditions: Compound concentration 1000.0 nM
[17] = target: Ephrin type-B receptor 4 (Homo sapiens) (UniProt P54760); conditions: Compound concentration 1000.0 nM
[18] = target: RAC-gamma serine/threonine-protein kinase (Homo sapiens) (UniProt Q9Y243); conditions: Compound concentration 1000.0 nM
[19] = target: ALK tyrosine kinase receptor (Homo sapiens) (UniProt Q9UM73); conditions: Compound concentration 1000.0 nM
[20] = target: Cyclin-dependent kinase 18 (Homo sapiens) (UniProt Q07002); conditions: Compound concentration 1000.0 nM
[21] = target: T1, 5-hydroxytryptamine receptor 3A (Homo sapiens) (UniProt P46098); conditions: Compound concentration 10.0 uM
T1 sequence (whole entry): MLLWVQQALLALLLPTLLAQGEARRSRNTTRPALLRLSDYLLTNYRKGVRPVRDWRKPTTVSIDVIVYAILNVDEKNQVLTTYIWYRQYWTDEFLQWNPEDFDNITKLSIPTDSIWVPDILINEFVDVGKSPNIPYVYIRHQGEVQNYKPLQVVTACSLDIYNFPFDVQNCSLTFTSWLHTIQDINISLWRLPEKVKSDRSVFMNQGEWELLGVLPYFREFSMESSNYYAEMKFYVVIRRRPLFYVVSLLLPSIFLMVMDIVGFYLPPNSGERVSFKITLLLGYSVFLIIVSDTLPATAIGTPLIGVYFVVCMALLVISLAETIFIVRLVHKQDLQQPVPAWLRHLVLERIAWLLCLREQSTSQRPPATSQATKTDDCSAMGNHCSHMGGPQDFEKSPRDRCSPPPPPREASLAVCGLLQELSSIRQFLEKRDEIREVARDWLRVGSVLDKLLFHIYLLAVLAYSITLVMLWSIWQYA

[22] = system: Epidermal growth factor receptor (Homo sapiens), P00533 [UNDEFINED MUTATION]; conditions: Compound concentration 1000.0 nM
[23] = target: Kappa-type opioid receptor (Homo sapiens) (UniProt P41145); conditions: Compound concentration 10.0 uM
[24] = target: Mitogen-activated protein kinase 3 (Homo sapiens) (UniProt P27361); conditions: Compound concentration 1000.0 nM
[25] = target: Serine/threonine-protein kinase ULK1 (Homo sapiens) (UniProt O75385); conditions: Compound concentration 1000.0 nM
[26] = target: Serine/threonine-protein kinase Chk2 (Homo sapiens) (UniProt O96017); conditions: Compound concentration 1000.0 nM
[27] = target: Serine/threonine-protein kinase Nek1 (Homo sapiens) (UniProt Q96PY6); conditions: Compound concentration 1000.0 nM
[28] = system: Tyrosine-protein kinase ABL1 (Homo sapiens), P00519 [T315I]; conditions: Compound concentration 1000.0 nM
[29] = target: SNF-related serine/threonine-protein kinase (Homo sapiens) (UniProt Q9NRH2); conditions: Compound concentration 1000.0 nM
[30] = target: Serine/threonine-protein kinase OSR1 (Homo sapiens) (UniProt O95747); conditions: Compound concentration 1000.0 nM
[31] = target: Phosphatidylinositol 4,5-bisphosphate 3-kinase catalytic subunit delta isoform (Homo sapiens) (UniProt O00329); conditions: Compound concentration 1000.0 nM
[32] = target: Ephrin type-A receptor 2 (Homo sapiens) (UniProt P29317); conditions: Compound concentration 1000.0 nM
[33] = target: Serine/threonine-protein kinase PknB (Mycobacterium tuberculosis) (UniProt P9WI81); conditions: Compound concentration 1000.0 nM
[34] = target: Myosin light chain kinase (Homo sapiens) (UniProt Q32MK0); conditions: Compound concentration 1000.0 nM
[35] = target: Bone morphogenetic protein receptor type-1B (Homo sapiens) (UniProt O00238); conditions: Compound concentration 1000.0 nM
[36] = target: Serine/threonine-protein kinase Nek4 (Homo sapiens) (UniProt P51957); conditions: Compound concentration 1000.0 nM
[37] = target: MAP kinase-activated protein kinase 2 (Homo sapiens) (UniProt P49137); conditions: Compound concentration 1000.0 nM
[38] = target: Receptor-interacting serine/threonine-protein kinase 2 (Homo sapiens) (UniProt O43353); conditions: Compound concentration 1000.0 nM

Serine/threonine-protein kinase Nek10 (Homo sapiens), sequence (Q6ZWH5 whole entry): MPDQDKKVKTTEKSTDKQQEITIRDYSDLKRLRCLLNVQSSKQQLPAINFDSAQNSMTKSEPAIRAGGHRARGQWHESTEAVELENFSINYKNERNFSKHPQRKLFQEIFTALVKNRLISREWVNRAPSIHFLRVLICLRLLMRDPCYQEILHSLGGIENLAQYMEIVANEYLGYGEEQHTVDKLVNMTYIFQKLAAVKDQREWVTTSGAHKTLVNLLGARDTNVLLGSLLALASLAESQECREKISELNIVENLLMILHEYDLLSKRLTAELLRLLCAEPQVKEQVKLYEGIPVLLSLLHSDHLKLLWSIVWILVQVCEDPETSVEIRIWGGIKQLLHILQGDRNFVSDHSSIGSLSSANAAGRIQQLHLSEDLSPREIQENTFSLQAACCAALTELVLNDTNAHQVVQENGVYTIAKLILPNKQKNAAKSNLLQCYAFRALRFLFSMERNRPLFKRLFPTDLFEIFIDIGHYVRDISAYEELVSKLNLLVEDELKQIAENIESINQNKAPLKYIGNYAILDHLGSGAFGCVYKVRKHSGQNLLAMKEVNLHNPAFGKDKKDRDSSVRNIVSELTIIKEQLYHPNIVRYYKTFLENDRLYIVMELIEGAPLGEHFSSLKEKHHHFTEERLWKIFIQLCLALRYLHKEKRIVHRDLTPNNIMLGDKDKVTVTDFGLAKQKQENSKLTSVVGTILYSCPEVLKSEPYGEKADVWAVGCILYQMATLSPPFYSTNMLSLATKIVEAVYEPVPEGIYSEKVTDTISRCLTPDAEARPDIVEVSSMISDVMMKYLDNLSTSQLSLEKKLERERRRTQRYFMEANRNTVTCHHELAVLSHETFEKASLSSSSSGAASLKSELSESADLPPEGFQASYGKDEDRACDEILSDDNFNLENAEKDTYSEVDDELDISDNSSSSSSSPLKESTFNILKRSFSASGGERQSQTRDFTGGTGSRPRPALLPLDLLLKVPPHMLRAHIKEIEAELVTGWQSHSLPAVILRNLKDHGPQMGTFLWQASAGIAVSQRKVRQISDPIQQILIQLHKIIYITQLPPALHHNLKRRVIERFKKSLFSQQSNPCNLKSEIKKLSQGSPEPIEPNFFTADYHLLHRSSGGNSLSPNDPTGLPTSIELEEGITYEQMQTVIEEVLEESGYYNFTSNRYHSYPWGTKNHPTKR
Ephrin type-A receptor 6 (Homo sapiens), sequence (Q9UF33 whole entry): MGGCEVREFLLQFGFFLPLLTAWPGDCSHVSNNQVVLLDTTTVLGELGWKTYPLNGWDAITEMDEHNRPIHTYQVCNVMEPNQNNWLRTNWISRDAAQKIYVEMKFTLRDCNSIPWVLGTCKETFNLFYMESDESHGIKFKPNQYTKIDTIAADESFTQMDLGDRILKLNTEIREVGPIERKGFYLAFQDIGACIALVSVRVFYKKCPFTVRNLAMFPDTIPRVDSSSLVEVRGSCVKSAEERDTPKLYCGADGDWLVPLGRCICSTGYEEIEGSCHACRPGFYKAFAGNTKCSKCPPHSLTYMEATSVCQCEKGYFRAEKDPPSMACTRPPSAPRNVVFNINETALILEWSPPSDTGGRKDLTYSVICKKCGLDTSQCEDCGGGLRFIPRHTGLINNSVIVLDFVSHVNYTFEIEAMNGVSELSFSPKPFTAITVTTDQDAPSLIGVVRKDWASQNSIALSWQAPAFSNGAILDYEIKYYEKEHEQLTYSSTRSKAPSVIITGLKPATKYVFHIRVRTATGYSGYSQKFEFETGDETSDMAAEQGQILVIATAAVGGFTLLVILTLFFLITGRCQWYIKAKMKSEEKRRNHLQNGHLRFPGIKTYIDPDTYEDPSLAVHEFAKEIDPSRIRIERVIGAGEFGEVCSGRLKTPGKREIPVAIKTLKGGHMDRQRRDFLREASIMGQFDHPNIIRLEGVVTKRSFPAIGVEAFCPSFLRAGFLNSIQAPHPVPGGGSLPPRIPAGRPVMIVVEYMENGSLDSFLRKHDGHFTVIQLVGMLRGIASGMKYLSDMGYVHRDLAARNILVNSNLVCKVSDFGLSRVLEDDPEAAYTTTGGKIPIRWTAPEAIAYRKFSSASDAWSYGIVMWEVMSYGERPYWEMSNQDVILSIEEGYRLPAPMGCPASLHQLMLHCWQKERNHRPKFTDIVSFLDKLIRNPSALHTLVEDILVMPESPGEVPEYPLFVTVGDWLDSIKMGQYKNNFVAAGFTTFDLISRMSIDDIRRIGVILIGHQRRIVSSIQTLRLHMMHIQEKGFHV
Ribosomal protein S6 kinase alpha-6 (Homo sapiens), sequence (Q9UK32 whole entry): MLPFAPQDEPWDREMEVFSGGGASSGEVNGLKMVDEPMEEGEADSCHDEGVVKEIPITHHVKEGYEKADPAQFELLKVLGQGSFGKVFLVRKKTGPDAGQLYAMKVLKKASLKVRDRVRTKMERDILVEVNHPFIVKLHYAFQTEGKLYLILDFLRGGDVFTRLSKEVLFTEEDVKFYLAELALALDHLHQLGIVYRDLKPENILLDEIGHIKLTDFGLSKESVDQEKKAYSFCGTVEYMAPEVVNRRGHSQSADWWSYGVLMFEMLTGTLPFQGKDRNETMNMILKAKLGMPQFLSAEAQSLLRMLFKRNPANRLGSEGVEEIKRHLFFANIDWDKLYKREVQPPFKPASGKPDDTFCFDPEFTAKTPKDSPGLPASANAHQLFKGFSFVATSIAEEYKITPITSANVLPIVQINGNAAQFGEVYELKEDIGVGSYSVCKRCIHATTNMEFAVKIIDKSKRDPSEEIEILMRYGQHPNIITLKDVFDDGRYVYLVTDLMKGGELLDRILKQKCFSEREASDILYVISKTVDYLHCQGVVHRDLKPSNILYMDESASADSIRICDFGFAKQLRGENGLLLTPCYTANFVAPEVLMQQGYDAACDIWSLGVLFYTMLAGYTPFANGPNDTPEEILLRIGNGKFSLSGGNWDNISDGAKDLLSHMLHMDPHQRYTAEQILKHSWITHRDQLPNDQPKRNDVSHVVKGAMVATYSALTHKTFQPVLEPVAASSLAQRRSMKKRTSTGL
Receptor-interacting serine/threonine-protein kinase 1 (Homo sapiens), sequence (Q13546 whole entry): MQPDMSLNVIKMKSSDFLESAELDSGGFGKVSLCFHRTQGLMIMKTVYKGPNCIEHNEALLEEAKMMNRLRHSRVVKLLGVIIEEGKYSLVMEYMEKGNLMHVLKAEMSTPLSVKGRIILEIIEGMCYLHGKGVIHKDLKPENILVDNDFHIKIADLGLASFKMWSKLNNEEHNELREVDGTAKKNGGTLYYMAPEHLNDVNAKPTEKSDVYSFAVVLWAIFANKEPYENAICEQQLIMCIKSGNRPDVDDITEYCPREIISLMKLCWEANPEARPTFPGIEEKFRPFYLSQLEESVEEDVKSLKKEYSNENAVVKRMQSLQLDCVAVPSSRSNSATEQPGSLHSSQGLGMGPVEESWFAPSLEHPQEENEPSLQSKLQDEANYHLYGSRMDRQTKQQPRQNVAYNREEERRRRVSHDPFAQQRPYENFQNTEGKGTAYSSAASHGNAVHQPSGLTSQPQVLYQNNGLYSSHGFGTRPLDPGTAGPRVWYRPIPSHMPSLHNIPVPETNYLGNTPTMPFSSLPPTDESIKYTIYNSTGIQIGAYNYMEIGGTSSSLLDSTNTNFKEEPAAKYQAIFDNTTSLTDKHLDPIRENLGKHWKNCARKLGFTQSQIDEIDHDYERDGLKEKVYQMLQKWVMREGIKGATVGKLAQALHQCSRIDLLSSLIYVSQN
Ephrin type-B receptor 4 (Homo sapiens), sequence (P54760 whole entry): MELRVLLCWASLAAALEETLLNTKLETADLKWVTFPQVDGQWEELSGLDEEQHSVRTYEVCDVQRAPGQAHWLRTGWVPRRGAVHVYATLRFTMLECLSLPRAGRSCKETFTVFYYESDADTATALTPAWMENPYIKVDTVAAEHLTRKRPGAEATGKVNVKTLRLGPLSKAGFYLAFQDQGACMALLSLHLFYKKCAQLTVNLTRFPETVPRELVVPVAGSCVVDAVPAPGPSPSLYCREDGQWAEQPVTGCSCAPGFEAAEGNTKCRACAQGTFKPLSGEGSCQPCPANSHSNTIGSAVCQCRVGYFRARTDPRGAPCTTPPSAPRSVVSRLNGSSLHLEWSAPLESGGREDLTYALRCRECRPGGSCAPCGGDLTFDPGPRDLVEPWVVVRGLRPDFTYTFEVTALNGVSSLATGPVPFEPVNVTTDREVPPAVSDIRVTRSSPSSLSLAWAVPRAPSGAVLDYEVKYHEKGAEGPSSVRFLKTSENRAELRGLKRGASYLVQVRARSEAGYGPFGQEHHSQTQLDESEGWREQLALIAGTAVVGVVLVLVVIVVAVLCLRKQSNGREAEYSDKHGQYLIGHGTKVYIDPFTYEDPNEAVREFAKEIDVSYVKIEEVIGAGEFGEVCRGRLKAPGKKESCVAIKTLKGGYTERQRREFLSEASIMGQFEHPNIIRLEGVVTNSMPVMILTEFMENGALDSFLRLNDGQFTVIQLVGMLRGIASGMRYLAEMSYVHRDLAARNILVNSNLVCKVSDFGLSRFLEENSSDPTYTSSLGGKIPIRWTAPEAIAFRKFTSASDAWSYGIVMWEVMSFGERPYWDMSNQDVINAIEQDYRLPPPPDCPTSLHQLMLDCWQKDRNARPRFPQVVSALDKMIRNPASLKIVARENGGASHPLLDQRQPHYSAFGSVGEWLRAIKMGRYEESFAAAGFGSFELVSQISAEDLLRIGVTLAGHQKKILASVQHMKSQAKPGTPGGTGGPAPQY
RAC-gamma serine/threonine-protein kinase (Homo sapiens), sequence (Q9Y243 whole entry): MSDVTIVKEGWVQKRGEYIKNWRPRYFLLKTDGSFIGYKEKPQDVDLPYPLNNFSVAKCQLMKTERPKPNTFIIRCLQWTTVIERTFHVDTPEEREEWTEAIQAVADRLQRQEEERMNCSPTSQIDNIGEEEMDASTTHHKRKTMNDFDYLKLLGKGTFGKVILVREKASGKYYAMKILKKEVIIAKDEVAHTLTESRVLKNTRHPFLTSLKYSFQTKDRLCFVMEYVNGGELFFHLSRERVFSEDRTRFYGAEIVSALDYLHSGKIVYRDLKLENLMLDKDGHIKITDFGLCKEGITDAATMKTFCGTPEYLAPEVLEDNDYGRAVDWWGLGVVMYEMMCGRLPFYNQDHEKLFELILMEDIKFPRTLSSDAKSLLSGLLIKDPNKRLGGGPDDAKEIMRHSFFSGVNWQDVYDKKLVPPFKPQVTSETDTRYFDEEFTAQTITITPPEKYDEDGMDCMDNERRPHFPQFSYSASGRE

N#CC1(c2ccccn2)CCN(Cc2cc(C(=O)N3CCCC3)c(=O)n3ccccc23)CC1
inactive: residual activity [1] 100% | residual activity [2] 100% | residual activity [3] 85% | residual activity [4] 75% | residual activity [5] 85% | residual activity [6] 100% | residual activity [7] 100% | residual activity [8] 87% | residual activity [9] 91% | residual activity [10] 94% | residual activity [11] 81% | residual activity [12] 96% | residual activity [13] 100% | residual activity [14] 96% | residual activity [15] 90% | residual activity [16] 95% | residual activity [17] 100% | residual activity [18] 74% | residual activity [19] 100% | residual activity [20] 100% | inhibition [21] 6.59% | residual activity [22] 92% | inhibition [23] 46.8% | residual activity [24] 91% | residual activity [25] 91% | residual activity [26] 92% | residual activity [27] 91% | residual activity [28] 83% | residual activity [29] 91% | residual activity [30] 100% | residual activity [31] 61% | residual activity [32] 86% | residual activity [33] 92% | residual activity [34] 76% | residual activity [35] 95% | residual activity [36] 88% | residual activity [37] 84% | residual activity [38] 83%

N#CC1(c2ccccn2)CCN(Cc2cc(C(=O)O)c(=O)n3ccccc23)CC1 [MSD-M1PAM]
inactive: residual activity [1] 100% | residual activity [2] 86% | residual activity [3] 72% | residual activity [4] 87% | residual activity [5] 100% | residual activity [6] 84% | residual activity [7] 100% | residual activity [8] 94% | residual activity [9] 97% | residual activity [10] 97% | residual activity [11] 75% | residual activity [12] 93% | residual activity [13] 100% | residual activity [14] 82% | residual activity [15] 100% | residual activity [16] 69% | residual activity [17] 83% | residual activity [18] 100% | residual activity [19] 100% | residual activity [20] 100% | inhibition [21] 12% | residual activity [22] 100% | inhibition [23] 47.3% | residual activity [24] 100% | residual activity [25] 76% | residual activity [26] 87% | residual activity [27] 100% | residual activity [28] 80% | residual activity [29] 76% | residual activity [30] 79% | residual activity [31] 91% | residual activity [32] 83% | residual activity [33] 88% | residual activity [34] 87% | residual activity [35] 67% | residual activity [36] 100% | residual activity [37] 75% | residual activity [38] 92%
